Measurements as given in patent publication US5506213A, “Adminstration of 2'-halo-2'-deoxy adenosine to treat inflammatory bowel disease” (priority 1994, dated 1996).

Tests used:
[1] = test system: intact human cells or cell extracts; settings: cited from earlier work
monocytes [2] = test: Monocyte phagocytosis of antibody-coated erythrocytes; assay type: cell-based, human; settings: three days
Protocol: FIG. 6 is a graph that illustrates the effects of relatively low doses of CdA used to contact monocytes for a 72 hour time period. Monocyte release of interleukin-6 (IL-6; closed diamonds) and phagocytosis of antibody-coated red blood cells (RBC; closed squares) were examined, as was the viability of the cultured monocytes (open squares). Effects are expressed as a percentage of control values versus the CdA concentration in nanomoles (nM).
The effects of sub-lethal CdA concentrations on monocyte function in vitro was also studied. Cells were contacted and cultured with CdA (5-20 nM) for three days, after which phagocytosis and supernatant IL-6 activity were assayed.
Monocyte phagocytosis was assayed using autologous erythrocyte targets, sensitized with a subagglutinating titer of rabbit anti-human erythrocyte IgG (Cappel, Malvern, Pa.). Monocytes (2×10^5 cells/well) were exposed to sub-toxic concentrations of CdA in microwell plates for 72 hours. Complete medium was replaced with medium containing 10% fetal bovine serum, and a suspension of sensitized erythrocytes (0.25% packed cell volume) was added to the adherent monocyte layers. After incubation for 4 hours at 37 degrees C., the degree of phagocytosis was quantitated by the spectrophotometric method of Jungi (1985) J. Immunol. Meth., 82:141-153. […]

[3] = test system: CEM, Increased 5'-nucleoside; test: Direct comparative cytotoxicity assay (Table II), CEM increased 5'-nucleoside; assay type: cell-based, human; settings: Homo sapiens, 120 h, read-out: ID50: concentration that produced 50 percent reduction in all numbers after five days
Source text: (§1) The two compounds, CdA and CAFdA, were also compared for in vitro activity against another group of human cell lines in a direct comparative assay.
(§2) ^1 Concentration that produced 50 percent reduction in all numbers
(§3) ^2 CEM cells are T lymphoblasts; DHL9 cells are lymphoblasts.

[4] = test system: freshly isolated human monocytes; test: Dose- and time-dependence of CdA cytotoxicity toward monocytes; assay type: cell-based; settings: 50 nM CdA (FIG. 3)
Protocol: FIG. 3 is a graph of the dose- and time-dependence of 2-chlorodeoxyadenosine (CdA) cytotoxicity toward human monocytes in vitro.
Freshly isolated human monocytes were cultured at a concentration of 10^5 cells/well in 96-well flat-bottom tissue culture plates. The cells were incubated in complete medium (Example 2) for about 12 hours following initial plating. The cells were then treated by the addition of various concentrations of CdA to form monocyte-containing compositions specific wells and the plates were incubated, as discussed previously.
The percentage of viable cells that were present in wells containing the treated monocytes was determined daily for six days.

[5] = test system: 2 week old cultured monocytes (differentiated macrophages); test: In vitro cytotoxicity toward 2 week old cultured monocytes; assay type: cell-based, human
DHL9, wild type = test: Direct comparative cytotoxicity assay (Table II), DHL9 wild type; assay type: cell-based, human; settings: Homo sapiens, 120 h, read-out: ID50: concentration that produced 50 percent reduction in all numbers after five days
Source text: as §1, §2, §3

monocytes [6] = test: Direct comparative cytotoxicity assay (Table II), monocytes; assay type: cell-based, human; settings: Homo sapiens, Monocyte, 120 h, read-out: ID50: concentration that produced 50 percent reduction in all numbers after five days
Source text: as §1, §2

rheumatoid arthritis = test: CdA 5-day continuous infusion in rheumatoid arthritis patients: cell counts and joint parameters; assay type: in vivo, human
Protocol: FIG. 7 is a graph showing the results of a study of the cytotoxicity of CdA toward monocytes and lymphocytes of a rheumatoid arthritis patient receiving CdA therapy. A continuous intravenous infusion of CdA (0.1 mg/ml in isotonic saline) was administered at a dosage of 0.1 mg/kg per day for a five-day period. Monocyte numbers are shown as open squares and lymphocyte numbers are shown as closed diamonds. Three cycles of infusions of CdA were given, and are illustrated as open rectangles for the five-day time periods of each infusion at a position in the graph above the days in the treatment regimen on which infusions were given.
A study similar to that described in Example 1 was carried out with three patients having rheumatoid arthritis. In each instance, the patient had been unsuccessfully treated with methotrexate, a gold salt or penicillamine, which treatment had been stopped three weeks prior to the first treatment with CdA. […]
A specially trained nurse examined the number of swollen and painful joints in each of the patients prior to the start of each treatment. The values obtained are as listed for each patient.
PIP joint measurements refer to the total arthrocircameter measurements, in mm, of each proximal interphalangeal (PIP) joint, for each patient. Values are shown for each of the three patients.
Each patient was asked to rank his or her performance of nine function parameters on a 0 to 10 scale, 10 being the highest. These function parameters were: turning in bed, rising from a chair, buttoning buttons, combing hair, walking, turning knobs, climbing stairs, getting in and out of an automobile, and general well being. The total score on these nine parameters for each patient is listed as the performance index.

[7] = Pt. # 1, CdA treatment course 1
[8] = Pt. # 1, CdA treatment course 2
[9] = Pt. # 1, CdA treatment course 3
[10] = Pt. # 1, prior to start of CdA treatment course 1
[11] = Pt. # 1, prior to start of CdA treatment course 2
[12] = Pt. # 1, prior to start of CdA treatment course 3
[13] = Pt. # 2, CdA treatment course 1
[14] = Pt. # 2, CdA treatment course 2
[15] = Pt. # 2, CdA treatment course 3
[16] = Pt. # 2, prior to start of CdA treatment course 1
[17] = Pt. # 2, prior to start of CdA treatment course 2
[18] = Pt. # 2, prior to start of CdA treatment course 3
[19] = Pt. # 2, prior to start of CdA treatment course 4
[20] = Pt. # 2, prior to start of CdA treatment course 5
[21] = Pt. # 2, prior to start of CdA treatment course 6
[22] = Pt. # 3, CdA treatment course 1
[23] = Pt. # 3, CdA treatment course 2
[24] = Pt. # 3, CdA treatment course 3
[25] = Pt. # 3, prior to start of CdA treatment course 1
[26] = Pt. # 3, prior to start of CdA treatment course 2
[27] = Pt. # 3, prior to start of CdA treatment course 3
[28] = Pt. # 3, prior to start of CdA treatment course 4

Nc1nc(Cl)nc2c1ncn2[C@H]1C[C@H](O)[C@@H](CO)O1 [CdA, 2-chloro-9,1'-beta-D-2'-deoxyribosyladenine]
phosphorylation ([1]; T lymphocytes): phosphorylated efficiently | catabolism ([1]; intact human cells or cell extracts): not catabolized significantly | cell viability (monocytes [2]; 5-20 nM CdA): unchanged cell viability | phagocytosis of antibody-coated erythrocyte targets (monocytes [2]; 10 and 20 nM CdA): markedly suppressed | IC50 [3]: 60 nM | cell viability [4]: significant decrease in cell viability within two days | IC50 ([5]; Homo sapiens, Monocyte, 336 h, read-out: CdA concentration at which 50 percent of 2 week old cultured monocytes were killed): > 250 nM | increase in resistance of 2 week old cultured versus freshly isolated monocytes ([5]; human, monocytes): over 12.5 times | IC50 (DHL9, wild type): 80 nM | IC50 (monocytes [6]): 22 nM | PIP Joint Measurement (Totals, in mm) (rheumatoid arthritis; [7]): 583 mm | Performance Index (total score on nine function parameters, each 0 to 10) (rheumatoid arthritis; [7]): 70 | PIP Joint Measurement (Totals, in mm) (rheumatoid arthritis; [8]): 612 mm | Performance Index (total score on nine function parameters, each 0 to 10) (rheumatoid arthritis; [8]): 33 | PIP Joint Measurement (Totals, in mm) (rheumatoid arthritis; [9]): 560 mm | Performance Index (total score on nine function parameters, each 0 to 10) (rheumatoid arthritis; [9]): 27 | Painful Joints (rheumatoid arthritis; [10]): 73/38 | Swollen Joints (rheumatoid arthritis; [10]): 51/47 | Painful Joints (rheumatoid arthritis; [11]): 39 | Swollen Joints (rheumatoid arthritis; [11]): 37 | Painful Joints (rheumatoid arthritis; [12]): 23 | Swollen Joints (rheumatoid arthritis; [12]): 25 | PIP Joint Measurement (Totals, in mm) (rheumatoid arthritis; [13]): 527 mm | Performance Index (total score on nine function parameters, each 0 to 10) (rheumatoid arthritis; [13]): 46 | PIP Joint Measurement (Totals, in mm) (rheumatoid arthritis; [14]): 526 mm | Performance Index (total score on nine function parameters, each 0 to 10) (rheumatoid arthritis; [14]): 28 | PIP Joint Measurement (Totals, in mm) (rheumatoid arthritis; [15]): 531 mm | Performance Index (total score on nine function parameters, each 0 to 10) (rheumatoid arthritis; [15]): 22 | PIP Joint Measurement (Totals, in mm) (rheumatoid arthritis; Pt. # 2, CdA treatment course 4): 498 mm | PIP Joint Measurement (Totals, in mm) (rheumatoid arthritis; Pt. # 2, CdA treatment course 5): 485 mm | PIP Joint Measurement (Totals, in mm) (rheumatoid arthritis; Pt. # 2, CdA treatment course 6): 506 mm | Painful Joints (rheumatoid arthritis; [16]): 32 | Swollen Joints (rheumatoid arthritis; [16]): 9 | Painful Joints (rheumatoid arthritis; [17]): 34 | Swollen Joints (rheumatoid arthritis; [17]): 27 | Painful Joints (rheumatoid arthritis; [18]): 28 | Swollen Joints (rheumatoid arthritis; [18]): 25 | Painful Joints (rheumatoid arthritis; [19]): 36 | Swollen Joints (rheumatoid arthritis; [19]): 22 | Painful Joints (rheumatoid arthritis; [20]): 27 | Swollen Joints (rheumatoid arthritis; [20]): 23 | Painful Joints (rheumatoid arthritis; [21]): 26 | Swollen Joints (rheumatoid arthritis; [21]): 14 | PIP Joint Measurement (Totals, in mm) (rheumatoid arthritis; [22]): 560 mm | Performance Index (total score on nine function parameters, each 0 to 10) (rheumatoid arthritis; [22]): 30 | PIP Joint Measurement (Totals, in mm) (rheumatoid arthritis; [23]): 548 mm | Performance Index (total score on nine function parameters, each 0 to 10) (rheumatoid arthritis; [23]): 36 | PIP Joint Measurement (Totals, in mm) (rheumatoid arthritis; [24]): 549 mm | Performance Index (total score on nine function parameters, each 0 to 10) (rheumatoid arthritis; [24]): 32 | PIP Joint Measurement (Totals, in mm) (rheumatoid arthritis; Pt. # 3, CdA treatment course 4): 602 mm | Painful Joints (rheumatoid arthritis; [25]): 36 | Swollen Joints (rheumatoid arthritis; [25]): 16 | Painful Joints (rheumatoid arthritis; [26]): 40 | Swollen Joints (rheumatoid arthritis; [26]): 17 | Painful Joints (rheumatoid arthritis; [27]): 54 | Swollen Joints (rheumatoid arthritis; [27]): 14 | Painful Joints (rheumatoid arthritis; [28]): 59 | Swollen Joints (rheumatoid arthritis; [28]): 11 | time for monocyte numbers to return to approximately pre-treatment number (rheumatoid arthritis; after infusion of CdA was stopped for each cycle): within about ten days | arthritic disease states at follow-up (rheumatoid arthritis; all three patients, reported by personal physicians): had improved | total white cell count drop from pretreatment values (rheumatoid arthritis; follow-up, two patients, lasted about three years and over one year post treatment): about 50% | adverse event leading to drop-out (rheumatoid arthritis; one patient, after CdA treatment): overwhelming fatigue phenomenon | monocyte number (rheumatoid arthritis; patient 1, during each CdA administration cycle, 0.1 mg/kg per day, five days): dropped to substantially zero | neutrophil and platelet numbers (rheumatoid arthritis; patient 1, throughout the one hundred days of the study): substantially constant | patients with a reduction in the number of painful or swollen joints (rheumatoid arthritis; three rheumatoid arthritis patients): two of the three patients
